# Measurements: patent US10597388B2, “Pyridazinone herbicides” (FMC CORPORATION, priority 2014, dated 2020)
# What was measured:
# Assay in all cases: Test D controlled growth environment herbicide test, pre- and postemergence
# Type in all cases: in vivo
# [1] = tested on: windgrass (Apera spica-venti)
# Outline: (§1)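 Species sown in silt loam and sprayed preemergence, or grown in peat-based medium to 2–18 cm (1- to 4-leaf stage) and sprayed postemergence, with compounds in non-phytotoxic solvent plus surfactant. Visual injury scored versus controls after 14–21 d in a controlled environment, 0 (no effect) to 100 (complete control).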
# [2] = tested on: ryegrass, Italian (Italian ryegrass, Lolium multiflorum)
# Outline: as §1
# [3] = tested on: foxtail, green (green foxtail, Setaria viridis)
# Outline: as §1
# [4] = tested on: wheat, winter (winter wheat, Triticum aestivum)
# Outline: as §1
# [5] = tested on: Russian thistle (Salsola kali)
# Outline: as §1
# [6] = tested on: wheat, spring (spring wheat, Triticum aestivum)
# Outline: as §1
# [7] = tested on: kochia (Kochia scoparia)
# Outline: as §1
# [8] = tested on: lambsquarters (Chenopodium album)
# Outline: as §1
# [9] = tested on: deadnettle (henbit deadnettle, Lamium amplexicaule)
# Outline: as §1
# [10] = tested on: canarygrass (Phalaris minor)
# Outline: as §1
# [11] = tested on: field violet (Viola arvensis)
# Outline: as §1
# [12] = tested on: chickweed (common chickweed, Stellaria media)
# Outline: as §1
# [13] = tested on: blackgrass (Alopecurus myosuroides)
# Outline: as §1
# [14] = Postemergence, 31 g ai/ha, scale 0 to 100 (0 no effect, 100 complete control)
# [15] = Postemergence, 125 g ai/ha, visual rating on scale 0 (no effect) to 100 (complete control), 14 to 21 d
# [16] = Postemergence, 250 g ai/ha, scale 0 to 100 (0 no effect, 100 complete control)
# [17] = Preemergence, 125 g ai/ha, scale 0 to 100 (0 no effect, 100 complete control)
# [18] = Preemergence, 250 g ai/ha, scale 0 to 100 (0 no effect, 100 complete control)
# [19] = postemergence, 62 g ai/ha, scale 0 to 100, 0 no effect, 100 complete control
compound,measurement,setting,value
CCOC(=O)Oc1c(C)nn(C)c(=O)c1-c1c(C)sc2c(C)cc(C)cc12 [Compound 83],Windgrass plant response rating,[1]; [14],75
same,"Plant response rating, Windgrass",[1]; [15],90
same,"Plant response rating, Windgrass",[1]; [16],95
same,"Plant response rating (scale of 0 to 100), Windgrass","[1]; Preemergence, 31 g ai/ha",15
same,"Plant response rating (scale of 0 to 100), Windgrass","[1]; Preemergence, 62 g ai/ha",75
same,"Plant response rating, Windgrass",[1]; [17],90
same,"Plant response rating, Windgrass",[1]; [18],95
same,"Plant response rating, Windgrass",[1]; [19],85
same,"Ryegrass, Italian plant response rating",[2]; [14],80
same,"Plant response rating, Ryegrass, Italian",[2]; [15],90
same,"Plant response rating, Ryegrass, Italian",[2]; [16],90
same,"Plant response rating (scale of 0 to 100), Ryegrass, Italian","[2]; Preemergence, 31 g ai/ha",40
same,"Plant response rating (scale of 0 to 100), Ryegrass, Italian","[2]; Preemergence, 62 g ai/ha",75
same,"Plant response rating, Ryegrass, Italian",[2]; [17],90
same,"Plant response rating, Ryegrass, Italian",[2]; [18],100
same,"Plant response rating, Ryegrass, Italian",[2]; [19],85
same,"Foxtail, Green plant response rating",[3]; [14],75
same,"Plant response rating, Foxtail, Green",[3]; [15],90
same,"Plant response rating, Foxtail, Green",[3]; [16],100
same,"Plant response rating (scale of 0 to 100), Foxtail, Green","[3]; Preemergence, 31 g ai/ha",15
same,"Plant response rating (scale of 0 to 100), Foxtail, Green","[3]; Preemergence, 62 g ai/ha",50
same,"Plant response rating, Foxtail, Green",[3]; [17],100
same,"Plant response rating, Foxtail, Green",[3]; [18],100
same,"Plant response rating, Foxtail, Green",[3]; [19],90
same,"Wheat, Winter plant response rating",[4]; [14],0
same,"Plant response rating, Wheat, Winter",[4]; [15],5
same,"Plant response rating, Wheat, Winter",[4]; [16],10
same,"Plant response rating (scale of 0 to 100), Wheat, Winter","[4]; Preemergence, 31 g ai/ha",0
same,"Plant response rating (scale of 0 to 100), Wheat, Winter","[4]; Preemergence, 62 g ai/ha",0
same,"Plant response rating, Wheat, Winter",[4]; [17],5
same,"Plant response rating, Wheat, Winter",[4]; [18],25
same,"Plant response rating, Wheat, Winter",[4]; [19],0
same,Russian Thistle plant response rating,[5]; [14],75
same,"Plant response rating, Russian Thistle",[5]; [15],80
same,"Plant response rating, Russian Thistle",[5]; [16],85
same,"Plant response rating (scale of 0 to 100), Russian Thistle","[5]; Preemergence, 31 g ai/ha",0
same,"Plant response rating (scale of 0 to 100), Russian Thistle","[5]; Preemergence, 62 g ai/ha",0
same,"Plant response rating, Russian Thistle",[5]; [17],15
same,"Plant response rating, Russian Thistle",[5]; [18],0
same,"Plant response rating, Russian Thistle",[5]; [19],80
same,"Wheat, Spring plant response rating",[6]; [14],0
same,"Plant response rating, Wheat, Spring",[6]; [15],5
same,"Plant response rating, Wheat, Spring",[6]; [16],20
same,"Plant response rating (scale of 0 to 100), Wheat, Spring","[6]; Preemergence, 31 g ai/ha",0
same,"Plant response rating (scale of 0 to 100), Wheat, Spring","[6]; Preemergence, 62 g ai/ha",0
same,"Plant response rating, Wheat, Spring",[6]; [17],10
same,"Plant response rating, Wheat, Spring",[6]; [18],35
same,"Plant response rating, Wheat, Spring",[6]; [19],0
same,Kochia plant response rating,[7]; [14],70
same,"Plant response rating, Kochia",[7]; [15],80
same,"Plant response rating, Kochia",[7]; [16],90
same,"Plant response rating (scale of 0 to 100), Kochia","[7]; Preemergence, 31 g ai/ha",0
same,"Plant response rating (scale of 0 to 100), Kochia","[7]; Preemergence, 62 g ai/ha",0
same,"Plant response rating, Kochia",[7]; [17],30
same,"Plant response rating, Kochia",[7]; [18],50
same,"Plant response rating, Kochia",[7]; [19],75
same,Lambsquarters plant response rating,[8]; [14],95
same,"Plant response rating, Lambsquarters",[8]; [15],100
same,"Plant response rating, Lambsquarters",[8]; [16],100
same,"Plant response rating (scale of 0 to 100), Lambsquarters","[8]; Preemergence, 31 g ai/ha",95
same,"Plant response rating (scale of 0 to 100), Lambsquarters","[8]; Preemergence, 62 g ai/ha",65
same,"Plant response rating, Lambsquarters",[8]; [17],100
same,"Plant response rating, Lambsquarters",[8]; [18],100
same,"Plant response rating, Lambsquarters",[8]; [19],100
same,Deadnettle plant response rating,[9]; [14],15
same,"Plant response rating, Deadnettle",[9]; [15],55
same,"Plant response rating, Deadnettle",[9]; [16],60
same,"Plant response rating (scale of 0 to 100), Deadnettle","[9]; Preemergence, 31 g ai/ha",0
same,"Plant response rating (scale of 0 to 100), Deadnettle","[9]; Preemergence, 62 g ai/ha",0
same,"Plant response rating, Deadnettle",[9]; [17],15
same,"Plant response rating, Deadnettle",[9]; [18],100
same,"Plant response rating, Deadnettle",[9]; [19],25
same,Canarygrass plant response rating,[10]; [14],50
same,"Plant response rating, Canarygrass",[10]; [15],80
same,"Plant response rating, Canarygrass",[10]; [16],90
same,"Plant response rating (scale of 0 to 100), Canarygrass","[10]; Preemergence, 31 g ai/ha",65
same,"Plant response rating (scale of 0 to 100), Canarygrass","[10]; Preemergence, 62 g ai/ha",85
same,"Plant response rating, Canarygrass",[10]; [17],90
same,"Plant response rating, Canarygrass",[10]; [18],100
same,"Plant response rating, Canarygrass",[10]; [19],75
same,Field Violet plant response rating,[11]; [14],90
same,"Plant response rating, Field Violet",[11]; [15],100
same,"Plant response rating, Field Violet",[11]; [16],100
same,"Plant response rating (scale of 0 to 100), Field Violet","[11]; Preemergence, 31 g ai/ha",75
same,"Plant response rating (scale of 0 to 100), Field Violet","[11]; Preemergence, 62 g ai/ha",80
same,"Plant response rating, Field Violet",[11]; [17],95
same,"Plant response rating, Field Violet",[11]; [18],100
same,"Plant response rating, Field Violet",[11]; [19],80
same,Chickweed plant response rating,[12]; [14],100
same,"Plant response rating, Chickweed",[12]; [15],100
same,"Plant response rating, Chickweed",[12]; [16],100
same,"Plant response rating (scale of 0 to 100), Chickweed","[12]; Preemergence, 31 g ai/ha",100
same,"Plant response rating (scale of 0 to 100), Chickweed","[12]; Preemergence, 62 g ai/ha",100
same,"Plant response rating, Chickweed",[12]; [17],100
same,"Plant response rating, Chickweed",[12]; [18],100
same,"Plant response rating, Chickweed",[12]; [19],100
same,Blackgrass plant response rating,[13]; [14],65
same,"Plant response rating, Blackgrass",[13]; [15],75
same,"Plant response rating, Blackgrass",[13]; [16],80
same,"Plant response rating (scale of 0 to 100), Blackgrass","[13]; Preemergence, 31 g ai/ha",20
same,"Plant response rating, Blackgrass","[13]; Preemergence, 62 g ai/ha, scale 0 to 100 (0 no effect, 100 complete control)",60
same,"Plant response rating, Blackgrass",[13]; [17],70
same,"Plant response rating, Blackgrass",[13]; [18],85
same,"Plant response rating, Blackgrass",[13]; [19],70
